# Test results reported in PubChem BioAssay (NCI).
#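 Briefly, cells in 96-well plates were exposed to five compound concentrations for 48 h, and endpoints were estimated by linear interpolation. TGI denotes the concentration required for complete inhibition of growth.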
# Tests used:
# Test in all cases: NCI tumour cell line growth inhibition, 48 h
# MOLT-4 leukemia = system: MOLT-4 leukemia
# MALME-3M melanoma = system: MALME-3M melanoma
# UO-31 renal = system: UO-31 renal
# HOP-92 NSCLC = system: HOP-92 NSCLC
# SN12C renal = system: SN12C renal
# NCI-H226 lung = system: NCI-H226 lung
# EKVX NSCLC = system: EKVX NSCLC
# SF-268 CNS = system: SF-268 CNS
# SK-MEL-2 melanoma = system: SK-MEL-2 melanoma
# LOX IMVI melanoma = system: LOX IMVI melanoma
# SK-MEL-5 melanoma = system: SK-MEL-5 melanoma
# HT29 colon = system: HT29 colon
# XF 498 CNS = system: XF 498 CNS
# NCI-H23 lung = system: NCI-H23 lung
# SK-MEL-28 melanoma = system: SK-MEL-28 melanoma
# OVCAR-4 ovarian = system: OVCAR-4 ovarian
# HL-60(TB) leukemia = system: HL-60(TB) leukemia
# RPMI-8226 leukemia = system: RPMI-8226 leukemia
# SF-295 CNS = system: SF-295 CNS
# CCRF-CEM leukemia = system: CCRF-CEM leukemia
# NCI-H460 lung = system: NCI-H460 lung
# DLD-1 colon = system: DLD-1 colon
# KM12 colon = system: KM12 colon
# CAKI-1 renal = system: CAKI-1 renal
# SR leukemia = system: SR leukemia
# DMS 273 small cell lung = system: DMS 273 small cell lung
# 786-0 renal = system: 786-0 renal
# KM20L2 colon = system: KM20L2 colon
# SW-620 colon = system: SW-620 colon
# HOP-18 NSCLC = system: HOP-18 NSCLC
# OVCAR-5 ovarian = system: OVCAR-5 ovarian
# A549 NSCLC = system: A549 NSCLC
# SF-539 CNS = system: SF-539 CNS
# K-562 leukemia = system: K-562 leukemia
# TK-10 renal = system: TK-10 renal
# M14 melanoma = system: M14 melanoma
# UACC-62 melanoma = system: UACC-62 melanoma
# HOP-62 NSCLC = system: HOP-62 NSCLC
# IGROV1 ovarian = system: IGROV1 ovarian
# SK-OV-3 ovarian = system: SK-OV-3 ovarian
# SNB-75 CNS = system: SNB-75 CNS
# OVCAR-3 ovarian = system: OVCAR-3 ovarian
# A498 renal = system: A498 renal
# SNB-19 CNS = system: SNB-19 CNS
# COLO 205 colon = system: COLO 205 colon
# DMS 114 small cell lung = system: DMS 114 small cell lung
# ACHN renal = system: ACHN renal
# NCI-H522 lung = system: NCI-H522 lung
# SNB-78 CNS = system: SNB-78 CNS
# U251 CNS = system: U251 CNS
# UACC-257 melanoma = system: UACC-257 melanoma
# OVCAR-8 ovarian = system: OVCAR-8 ovarian
# HCT-15 colon = system: HCT-15 colon
# HCT-116 colon = system: HCT-116 colon
# M19-MEL melanoma = system: M19-MEL melanoma
# HCC-2998 colon = system: HCC-2998 colon
# LXFL 529 NSCLC = system: LXFL 529 NSCLC
# RXF 393 renal = system: RXF 393 renal
compound,measurement,setting,value
c1ccc2cc(-c3cc4ccccc4s3)ccc2c1,TGI,MOLT-4 leukemia,> 100 µM
same,TGI,MALME-3M melanoma,> 100 µM
same,TGI,UO-31 renal,> 100 µM
same,TGI,HOP-92 NSCLC,> 100 µM
same,TGI,SN12C renal,> 100 µM
same,TGI,NCI-H226 lung,> 100 µM
same,TGI,EKVX NSCLC,> 100 µM
same,TGI,SF-268 CNS,> 100 µM
same,TGI,SK-MEL-2 melanoma,> 100 µM
same,TGI,LOX IMVI melanoma,> 100 µM
same,TGI,SK-MEL-5 melanoma,> 100 µM
same,TGI,HT29 colon,> 100 µM
same,TGI,XF 498 CNS,> 100 µM
same,TGI,NCI-H23 lung,> 100 µM
same,TGI,SK-MEL-28 melanoma,> 100 µM
same,TGI,OVCAR-4 ovarian,> 100 µM
same,TGI,HL-60(TB) leukemia,> 100 µM
same,TGI,RPMI-8226 leukemia,> 100 µM
same,TGI,SF-295 CNS,> 100 µM
same,TGI,CCRF-CEM leukemia,> 100 µM
same,TGI,NCI-H460 lung,> 100 µM
same,TGI,DLD-1 colon,> 100 µM
same,TGI,KM12 colon,> 100 µM
same,TGI,CAKI-1 renal,> 100 µM
same,TGI,SR leukemia,> 100 µM
same,TGI,DMS 273 small cell lung,> 100 µM
same,TGI,786-0 renal,> 100 µM
same,TGI,KM20L2 colon,> 100 µM
same,TGI,SW-620 colon,> 100 µM
same,TGI,HOP-18 NSCLC,> 100 µM
same,TGI,OVCAR-5 ovarian,> 100 µM
same,TGI,A549 NSCLC,> 100 µM
same,TGI,SF-539 CNS,> 100 µM
same,TGI,K-562 leukemia,> 100 µM
same,TGI,TK-10 renal,> 100 µM
same,TGI,M14 melanoma,> 100 µM
same,TGI,UACC-62 melanoma,> 100 µM
same,TGI,HOP-62 NSCLC,> 100 µM
same,TGI,IGROV1 ovarian,> 100 µM
same,TGI,SK-OV-3 ovarian,> 100 µM
same,TGI,SNB-75 CNS,93.7 µM
same,TGI,OVCAR-3 ovarian,> 100 µM
same,TGI,A498 renal,> 100 µM
same,TGI,SNB-19 CNS,> 100 µM
same,TGI,COLO 205 colon,> 100 µM
same,TGI,DMS 114 small cell lung,> 100 µM
same,TGI,ACHN renal,> 100 µM
same,TGI,NCI-H522 lung,> 100 µM
same,TGI,SNB-78 CNS,> 100 µM
same,TGI,U251 CNS,> 100 µM
same,TGI,UACC-257 melanoma,> 100 µM
same,TGI,OVCAR-8 ovarian,> 100 µM
same,TGI,HCT-15 colon,> 100 µM
same,TGI,HCT-116 colon,> 100 µM
same,TGI,M19-MEL melanoma,> 100 µM
same,TGI,HCC-2998 colon,> 100 µM
Cc1c2n(c(=O)[nH]c1=O)C1OC(CO)C(O2)C1O (stereo not drawn),TGI,MOLT-4 leukemia,> 100 µM
same,TGI,UO-31 renal,> 100 µM
same,TGI,HOP-92 NSCLC,> 100 µM
same,TGI,SN12C renal,> 100 µM
same,TGI,NCI-H226 lung,> 100 µM
same,TGI,EKVX NSCLC,> 100 µM
same,TGI,SF-268 CNS,> 100 µM
same,TGI,SK-MEL-2 melanoma,> 100 µM
same,TGI,LOX IMVI melanoma,> 100 µM
same,TGI,SK-MEL-5 melanoma,> 100 µM
same,TGI,HT29 colon,> 100 µM
same,TGI,NCI-H23 lung,> 100 µM
same,TGI,SK-MEL-28 melanoma,> 100 µM
same,TGI,OVCAR-4 ovarian,> 100 µM
same,TGI,HL-60(TB) leukemia,> 100 µM
same,TGI,RPMI-8226 leukemia,> 100 µM
same,TGI,SF-295 CNS,> 100 µM
same,TGI,CCRF-CEM leukemia,> 100 µM
same,TGI,NCI-H460 lung,> 100 µM
same,TGI,DLD-1 colon,> 100 µM
same,TGI,KM12 colon,> 100 µM
same,TGI,CAKI-1 renal,> 100 µM
same,TGI,SR leukemia,> 100 µM
same,TGI,DMS 273 small cell lung,> 100 µM
same,TGI,786-0 renal,> 100 µM
same,TGI,KM20L2 colon,> 100 µM
same,TGI,SW-620 colon,> 100 µM
same,TGI,A549 NSCLC,> 100 µM
same,TGI,SF-539 CNS,> 100 µM
same,TGI,K-562 leukemia,> 100 µM
same,TGI,TK-10 renal,> 100 µM
same,TGI,UACC-62 melanoma,> 100 µM
same,TGI,HOP-62 NSCLC,> 100 µM
same,TGI,IGROV1 ovarian,> 100 µM
same,TGI,SK-OV-3 ovarian,> 100 µM
same,TGI,SNB-75 CNS,> 100 µM
same,TGI,OVCAR-3 ovarian,> 100 µM
same,TGI,A498 renal,> 100 µM
same,TGI,LXFL 529 NSCLC,> 100 µM
same,TGI,SNB-19 CNS,> 100 µM
same,TGI,COLO 205 colon,> 100 µM
same,TGI,DMS 114 small cell lung,> 100 µM
same,TGI,ACHN renal,> 100 µM
same,TGI,NCI-H522 lung,> 100 µM
same,TGI,RXF 393 renal,> 100 µM
same,TGI,SNB-78 CNS,> 100 µM
same,TGI,U251 CNS,> 100 µM
same,TGI,UACC-257 melanoma,> 100 µM
same,TGI,OVCAR-8 ovarian,> 100 µM
same,TGI,HCT-15 colon,> 100 µM
same,TGI,HCT-116 colon,> 100 µM
same,TGI,M19-MEL melanoma,> 100 µM
